From patent US8247211B2, “Glycopeptide antibiotics” (American Cyanamid Company, priority 2001, dated 2012)
Values after ≈ are worked out from the molar mass of the structure shown.

What was measured:
Enterococcus sp. = experiment: In vitro antibacterial evaluation: minimum inhibitory concentration (MIC), broth dilution method; format: cell-based
Method in brief: (§1)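 Inoculum: 5×10^5 CFU/mL. Range: 64-0.06 μg/mL. Medium: Muller-Hinton II […]; NCCLS M7-A2 broth dilution. Endpoint: lowest concentration inhibiting growth. Strains include methicillin-, penicillin- and/or vancomycin-resistant clinical isolates.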

Streptococcus sp. = experiment: as above; format: cell-based
Method in brief: as §1

Escherichia coli = experiment: as above; format: cell-based
Method in brief: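 NCCLS M7-A2 broth dilution with Mueller-Hinton II, testing 64-0.06 μg/mL antibiotic against 5×10^5 CFU/mL inocula. Test strains include recent methicillin-, penicillin- or vancomycin-resistant clinical isolates. MIC is the lowest concentration preventing growth.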

Staphylococcus sp. = experiment: as above; format: cell-based; conditions: for MIC Staphylococcus aureus (ATCC 29213) / MIC Staphylococcus aureus (GC 1131) / MIC Staphylococcus aureus (GC 3051) / MIC Staphylococcus aureus (GC 3053) / MIC Staphylococcus aureus (GC 4541) / MIC Staphylococcus aureus (GC 4542) / MIC Staphylococcus aureus (GC 4544) / MIC Staphylococcus aureus (GC 4545): broth dilution, 18 hours at 35° C.
Method in brief: as §1

[1] = system: Staphylococcus aureus-SMITH (GC 4543); experiment: Acute lethal infection in mice (ED50); format: in vivo; conditions: female CD-1 mice, intraperitoneal challenge, intravenous dose 30 min. after infection, 7 day survival ratios
Method in brief: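 Median effective dose is calculated from 7-day survival ratios pooled across three separate tests. Mice (female CD-1) receive an intraperitoneal bacterial challenge in broth or hog gastric mucin, then intravenous drug 30 min later, five animals per dose level.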

[2] = broth dilution, inoculum 5×10^5 CFU/mL, 18 hours at 35° C.

COc1ccc(Oc2cccc(C3OCC4OC(OC5C(CO)OC(Oc6ccc(CC7NC(=O)C(C(C)c8ccccc8)NC(=O)CNC(=O)C(CO)NC(=O)C(C(O)C8CNC(=N)N8C8OC(CO)C(O)C(O)C8O)NC(=O)C(C(O)C8CNC(=N)N8)NC7=O)cc6)C(O)C5O)C(O)C(O)C4O3)c2)cc1 (stereo not shown) [Example 180]
MIC Enterococcus avium (GC 4558) (Enterococcus sp.; [2]): 2 mg/L (≈ 1.33 µM)
MIC Enterococcus faecalis (ATCC 29212) (Enterococcus sp.; [2]): 4 mg/L (≈ 2.66 µM)
MIC Enterococcus faecalis (GC 2242) (Enterococcus sp.; [2]): 4 mg/L (≈ 2.66 µM)
MIC Enterococcus faecalis (GC 2691) (Enterococcus sp.; [2]): 2 mg/L (≈ 1.33 µM)
MIC Enterococcus faecalis (GC 3059) (Enterococcus sp.; [2]): 2 mg/L (≈ 1.33 µM)
MIC Enterococcus faecalis (GC 4552) (Enterococcus sp.; [2]): 2 mg/L (≈ 1.33 µM)
MIC Enterococcus faecalis (GC 4553) (Enterococcus sp.; [2]): 2 mg/L (≈ 1.33 µM)
MIC Enterococcus faecalis (GC 4554) (Enterococcus sp.; [2]): 2 mg/L (≈ 1.33 µM)
MIC Enterococcus faecalis (GC 6189) (Enterococcus sp.; [2]): 2 mg/L (≈ 1.33 µM)
MIC Enterococcus faecium (GC 2243) (Enterococcus sp.; [2]): 2 mg/L (≈ 1.33 µM)
MIC Enterococcus faecium (GC 4556) (Enterococcus sp.; [2]): 2 mg/L (≈ 1.33 µM)
MIC Enterococcus faecium (GC 4557) (Enterococcus sp.; [2]): 2 mg/L (≈ 1.33 µM)
MIC Enterococcus faecalis (ATCC 29212) (Enterococcus sp.; strain ATCC 29212): 4 mg/L (≈ 2.66 µM)
MIC Enterococcus faecalis (GC 2242) (Enterococcus sp.; strain GC 2242): 4 mg/L (≈ 2.66 µM)
MIC Enterococcus faecium (GC 2243) (Enterococcus sp.; strain GC 2243): 2 mg/L (≈ 1.33 µM)
MIC Enterococcus faecalis (GC 2691) (Enterococcus sp.; strain GC 2691): 2 mg/L (≈ 1.33 µM)
MIC Enterococcus faecalis (GC 3059) (Enterococcus sp.; strain GC 3059): 2 mg/L (≈ 1.33 µM)
MIC Enterococcus faecalis (GC 4552) (Enterococcus sp.; strain GC 4552): 2 mg/L (≈ 1.33 µM)
MIC Enterococcus faecalis (GC 4553) (Enterococcus sp.; strain GC 4553): 2 mg/L (≈ 1.33 µM)
MIC Enterococcus faecalis (GC 4554) (Enterococcus sp.; strain GC 4554): 2 mg/L (≈ 1.33 µM)
MIC Enterococcus faecium (GC 4556) (Enterococcus sp.; strain GC 4556): 2 mg/L (≈ 1.33 µM)
MIC Enterococcus faecium (GC 4557) (Enterococcus sp.; strain GC 4557): 2 mg/L (≈ 1.33 µM)
MIC Enterococcus avium (GC 4558) (Enterococcus sp.; strain GC 4558): 2 mg/L (≈ 1.33 µM)
MIC Enterococcus faecalis (GC 6189) (Enterococcus sp.; strain GC 6189): 2 mg/L (≈ 1.33 µM)
MIC Streptococcus agalactiae (GC 4564) (Streptococcus sp.; [2]): <0.06 mg/L
MIC Streptococcus pneumoniae (ATCC 6301) (Streptococcus sp.; [2]): <0.06 mg/L
MIC Streptococcus pneumoniae (GC 1894) (Streptococcus sp.; [2]): <0.06 mg/L
MIC Streptococcus pneumoniae (GC 4565) (Streptococcus sp.; [2]): <0.06 mg/L
MIC Streptococcus pyogenes (GC 4563) (Streptococcus sp.; [2]): <0.06 mg/L
MIC Streptococcus pneumoniae (ATCC 6301) (Streptococcus sp.; strain ATCC 6301): <0.06 mg/L
MIC Streptococcus pneumoniae (GC 1894) (Streptococcus sp.; strain GC 1894): <0.06 mg/L
MIC Streptococcus pyogenes (GC 4563) (Streptococcus sp.; strain GC 4563): <0.06 mg/L
MIC Streptococcus agalactiae (GC 4564) (Streptococcus sp.; strain GC 4564): <0.06 mg/L
MIC Streptococcus pneumoniae (GC 4565) (Streptococcus sp.; strain GC 4565): <0.06 mg/L
MIC Escherichia coli (ATCC 25922) (Escherichia coli; strain ATCC 25922): >64 mg/L
MIC Escherichia coli (GC 4559) (Escherichia coli; strain GC 4559): 64 mg/L (≈ 42.5 µM)
MIC Escherichi coli (GC 4560) (Escherichia coli; strain GC 4560): 2 mg/L (≈ 1.33 µM)
MIC Staphylococcus aureus (ATCC 29213) (Staphylococcus sp.; 5×10^5 CFU/mL): 2 mg/L (≈ 1.33 µM)
MIC Staphylococcus aureus (GC 1131) (Staphylococcus sp.; 5×10^5 CFU/mL): 2 mg/L (≈ 1.33 µM)
MIC Staphylococcus aureus (GC 3051) (Staphylococcus sp.; 5×10^5 CFU/mL): 1 mg/L (≈ 0.664 µM)
MIC Staphylococcus aureus (GC 3053) (Staphylococcus sp.; 5×10^5 CFU/mL): 2 mg/L (≈ 1.33 µM)
MIC Staphylococcus aureus (GC 4541) (Staphylococcus sp.; 5×10^5 CFU/mL): 2 mg/L (≈ 1.33 µM)
MIC Staphylococcus aureus (GC 4542) (Staphylococcus sp.; 5×10^5 CFU/mL): 2 mg/L (≈ 1.33 µM)
MIC Staphylococcus aureus (GC 4544) (Staphylococcus sp.; 5×10^5 CFU/mL): 2 mg/L (≈ 1.33 µM)
MIC Staphylococcus aureus (GC 4545) (Staphylococcus sp.; 5×10^5 CFU/mL): 2 mg/L (≈ 1.33 µM)
MIC Staphylococcus aureus (ATCC 29213) (Staphylococcus sp.; strain ATCC 29213): 2 mg/L (≈ 1.33 µM)
MIC Staphylococcus aureus (GC 1131) (Staphylococcus sp.; strain GC 1131): 2 mg/L (≈ 1.33 µM)
MIC Staphylococcus aureus (GC 3051) (Staphylococcus sp.; strain GC 3051): 1 mg/L (≈ 0.664 µM)
MIC Staphylococcus aureus (GC 3053) (Staphylococcus sp.; strain GC 3053): 2 mg/L (≈ 1.33 µM)
MIC Staphylococcus aureus (GC 4541) (Staphylococcus sp.; strain GC 4541): 2 mg/L (≈ 1.33 µM)
MIC Staphylococcus aureus (GC 4542) (Staphylococcus sp.; strain GC 4542): 2 mg/L (≈ 1.33 µM)
MIC Staphylococcus aureus-SMITH (GC 4543) (Staphylococcus sp.; strain GC 4543): 2 mg/L (≈ 1.33 µM)
MIC Staphylococcus aureus (GC 4544) (Staphylococcus sp.; strain GC 4544): 2 mg/L (≈ 1.33 µM)
MIC Staphylococcus aureus (GC 4545) (Staphylococcus sp.; strain GC 4545): 2 mg/L (≈ 1.33 µM)
MIC Staphylococcus haemolyticus (GC 4546) (Staphylococcus sp.; strain GC 4546): 2 mg/L (≈ 1.33 µM)
MIC Coagulase Negative Staphylococcus (GC 4547) (Staphylococcus sp.; strain GC 4547): 2 mg/L (≈ 1.33 µM)
MIC Coagulase Negative Staphylococcus (GC 4548) (Staphylococcus sp.; strain GC 4548): 1 mg/L (≈ 0.664 µM)
MIC Coagulase Negative Staphylococcus (GC 4549) (Staphylococcus sp.; strain GC 4549): 1 mg/L (≈ 0.664 µM)
MIC Coagulase Negative Staphylococcus (GC 4551) (Staphylococcus sp.; strain GC 4551): 1 mg/L (≈ 0.664 µM)
MIC Coagulase Negative Staphylococcus (GC 6257) (Staphylococcus sp.; strain GC 6257): 0.5 mg/L (≈ 0.332 µM)
median effective dose (ED50), Staphylococcus aureus-SMITH (GC 4543) [1]: 0.05 mg/kg
